Columns and labels:
[1] = penetration into CSF; cited from earlier work
Experimental: The brain is also a key HIV reservoir ([71]–[73]). […] At 2 h postinfusion, the plasma concentration was 19.9 ng/ml (37.6nM). Assuming a 2% penetration, this would h ...

[2] = tested on: CD4+ and CD8+ T cells of PBMCs; assay: In vitro RMD impact on homing markers of PBMCs; type: cell-based, rhesus macaques; settings: for CCR5 expression on CD8+ T cells: untreated 7%; for CCR4 expression on CD8+ T cells: baseline 6%, untreated 29%; for α4β7 expression on CD8+ T cells: baseline 7%; for CCR9 expression on CD4+ T cells: baseline 2%; for CCR9 expression on CD4+ T cells / CCR9 expression on CD8+ T cells: untreated 3%
Experimental: To assess the RMD impact on the expression of cellular and homing markers, fresh PBMCs collected from 3 SIV-naïve RMs were subjected to either no RMD treatment or escalating doses of RMD (2, 10, and 20 ng/ml). The PBMCs were incubated with RMD in RPMI1640 supplemented with 1% Penicillin/Streptomycin, 1% HEPES buffer, 1% L-glutamine, and 5% heat-inactivated bovine calf serum for 0, 1, 2, or 5 days. PBMCs were then stained with CD3-V500, CD4-Alexa Flour 700 (L200), CD8-PE-CF594, CCR4-PE-Cy7 (1G1), CCR5-APC (3AP), CCR7-PE (3D12), CCR9-FITC (112509) (R&D Systems, Minneapolis, MN, USA), β7-PE-Cy5 (FIB504), and LIVE/DEAD Fixable Blue Dead Cell Stain Kit (Thermo Fisher Scientific); all antibodies were from BD Biosciences unless otherwise noted. Stained PBMCs were acquired on a LSR-II and data were analyzed with FlowJo software (TreeStar).

[3] = human, in vivo; cited from earlier work

## C/C=C1\NC(=O)[C@H]2CSSCC/C=C/[C@H](CC(=O)N[C@H](C(C)C)C(=O)N2)OC(=O)[C@H](C(C)C)NC1=O [RMD, romidepsin]
[1]
  AUC of CSF/plasma: 2%
[2]; 2 ng/ml RMD, day 5, baseline 3%, untreated 2%, p > 0.05
  CCR5 expression on CD4+ T cells: 1%
[2]; 2 ng/ml RMD, day 5, baseline 4%, p > 0.05
  CCR5 expression on CD8+ T cells: 59%
[2]; 2 ng/ml RMD, day 5, p > 0.05
  CCR4 expression on CD8+ T cells: 73%
  α4β7 expression on CD8+ T cells: 59%
[2]; 10 ng/ml RMD, day 1 (peak), baseline 3%
  CCR7 expression on CD8+ T cells: 6%
[2]; 10 ng/ml RMD, day 1, baseline 8%
  α4β7 expression on CD4+ T cells: 9%
[2]; 10 ng/ml RMD, day 2, baseline 8%
  α4β7 expression on CD4+ T cells: 16%
[2]; 10 ng/ml RMD, day 5 (peak), p > 0.05
  CCR9 expression on CD4+ T cells: 14%
[2]; 10 ng/ml RMD, day 5, baseline 3%, untreated 2%, p > 0.05
  CCR5 expression on CD4+ T cells: < 1%
[2]; 10 ng/ml RMD, day 5, baseline 4%, p > 0.05
  CCR9 expression on CD8+ T cells: 8%
[2]; 10 ng/ml RMD, day 5, baseline 4%, p < 0.05
  CCR5 expression on CD8+ T cells: 93%
[2]; 10 ng/ml RMD, day 5, p < 0.05
  CCR4 expression on CD8+ T cells: 93%
  α4β7 expression on CD8+ T cells: 95%
[2]; 10 ng/ml RMD, day 5, untreated 7.5%
  α4β7 expression on CD4+ T cells: 2%
[2]; 20 ng/ml RMD, day 1 (peak), baseline 3%
  CCR7 expression on CD8+ T cells: 6.2%
[2]; 20 ng/ml RMD, day 1, baseline 8%
  α4β7 expression on CD4+ T cells: 10%
[2]; 20 ng/ml RMD, day 2, baseline 8%
  α4β7 expression on CD4+ T cells: 15%
[2]; 20 ng/ml RMD, day 5 (peak), p > 0.05
  CCR9 expression on CD4+ T cells: 13%
[2]; 20 ng/ml RMD, day 5 (peak), baseline 4%, untreated 2%, p > 0.05
  CCR7 expression on CD4+ T cells: 9%
[2]; 20 ng/ml RMD, day 5, baseline 3%, untreated 2%, p > 0.05
  CCR5 expression on CD4+ T cells: < 1%
[2]; 20 ng/ml RMD, day 5, baseline 4%, p > 0.05
  CCR9 expression on CD8+ T cells: 10%
[2]; 20 ng/ml RMD, day 5, baseline 4%, p < 0.05
  CCR5 expression on CD8+ T cells: 90%
[2]; 20 ng/ml RMD, day 5, p < 0.05
  CCR4 expression on CD8+ T cells: 90%
  α4β7 expression on CD8+ T cells: 91%
[2]; 20 ng/ml RMD, day 5, untreated 2%
  CCR7 expression on CD8+ T cells: 5%
[2]; 20 ng/ml RMD, day 5, untreated 7.5%
  α4β7 expression on CD4+ T cells: 3%
[2]; 2, 10, 20 ng/ml RMD, up to day 5
  CCR4 expression on CD4+ T cells: mostly unchanged
[3]
  terminal elimination half-life in clinical studies: 6.6 to 19 h
  terminal elimination half-life reported in humans: ~ 3.5 h
